Measurements: US11369579B2 (SyneuRx International (Taiwan) Corp., priority 2016, dated 2022)
Entries after “also recorded” stand apart in the source; their conditions may differ.

Experiments:
[1] = Slurry conversion of polymorphic forms / thermodynamic stability comparison
[2] = Stability test under high humidity condition (>90% RH, 5 days), analyzed by XRPD; conditions: 500 mg

| Structure (SMILES) | Thermodynamic stability among forms of sodium benzoate [1] | Change of XRPD pattern [2] |
| --- | --- | --- |
| O=C([O-])c1ccccc1.[Na+] [sodium benzoate from Merck, sodium benzoate] | less thermodynamically stable | significant changes; also recorded: changes in XRPD |
| O=C([O-])c1ccccc1.[Na+] [sodium benzoate from Formosa Laboratories] | less thermodynamically stable | significant changes; also recorded: changes in XRPD |
